System: Eschericia coli strain ATCC25922
Assay: standard microdilution assay to determine minimum inhibitory concentrations (MICs)
Format: cell-based
Conditions: Escherichia coli, ATCC25922, Eschericia coli strain ATCC25922, standard microdilution assay; read-out: E. coli ATCC25922 MIC
In short: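 Broth microdilution per CLSI protocols, typically 100 µL final volume, against E. coli ATCC25922. MIC values scored as +/− against a cutoff of 16 micrograms/ml.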

| MIC | SMILES |
| --- | --- |
| > 16 µg/mL | N=C(N)NCCCC(CCCn1ccc(NC(=O)Nc2ccc(N3CCCCC3)cc2)nc1=O)NCCCN (stereo not shown) [Compound 186] |
| > 16 µg/mL | NCCCN(CCCNC(N)=O)Cc1ccc(-c2c[nH]c(NC(=O)Nc3cc(F)c(F)cc3F)nc2=O)cc1 [Compound 444] |
| > 16 µg/mL | NCCCNCc1c(F)cc(-c2c[nH]c(NC(=O)Nc3cc(F)c(F)cc3F)nc2=O)cc1F [Compound 287] |
| > 16 µg/mL | NCCCCN1CCN(c2c[nH]c(NC(=O)Nc3cc(F)c(F)cc3F)nc2=O)CC1 [Compound 520] |

From patent US9845297B2, “Antimicrobial compounds and methods of making and using the same” (Melinta Therapeutics, Inc., priority 2009, dated 2017)
